Source: US9556165B2 (priority 2012, dated 2017)
Converted amounts (≈) assume the structure as drawn. Read-outs that look alike come from different tables or passages of the source.

Experiments:
Assay type in all cases: cell-based
E. coli ATCC25922 = assay: MIC determination, broth microdilution (CLSI); conditions: for MIC: Escherichia coli, ATCC25922, strain 1
K. pneumoniae 60 = assay: MIC determination, broth microdilution (CLSI); conditions: for MIC: Klebsiella pneumoniae, 60, strain 2
E. cloacae 34654 = assay: MIC determination, broth microdilution (CLSI); conditions: for MIC: Enterobacter cloacae, 34654, strain 3
C. freundii K21/3034 = assay: MIC determination, broth microdilution (CLSI); conditions: for MIC: Citrobacter freundii, K21/3034, strain 4
M. morganii 126/3048 = assay: MIC determination, broth microdilution (CLSI); conditions: Morganella morganii, 126/3048, strain 5
P. aeruginosa PAO1 = assay: MIC determination, broth microdilution (CLSI); conditions: for MIC: Pseudomonas aeruginosa, PAO1, strain 6
[1] = system: P. aeruginosa 2297 (AmpC wt); assay: MIC determination, broth microdilution (CLSI); conditions: for MIC: Pseudomonas aeruginosa, strain 7
[2] = system: P. aeruginosa 2297-con (AmpC derepressed); assay: MIC determination, broth microdilution (CLSI); conditions: for MIC: Pseudomonas aeruginosa, read-out: strain 8 MIC, strain 8
A. baumannii ATCC15308 = assay: MIC determination, broth microdilution (CLSI); conditions: for MIC: Acinetobacter baumannii, ATCC15308, strain 9
S. maltophilia ICB7569 = assay: MIC determination, broth microdilution (CLSI); conditions: for MIC: Stenotrophomonas maltophilia, ICB7569, strain 10
S. aureus 133 = assay: MIC determination, broth microdilution (CLSI)
H. influenzae ATCC 49247 = assay: MIC determination, broth microdilution (CLSI); conditions: Haemophilus influenzae, ATCC49247, strain 12; broth microdilution; read-out: MIC strain 12 (H. influenzae ATCC 49247)
S. pneumoniae 113 = assay: MIC determination, broth microdilution (CLSI); conditions: Streptococcus pneumoniae, 113, strain 13; broth microdilution; read-out: MIC strain 13 (S. pneumoniae 113)
B. fragilis 6688 = assay: MIC determination, broth microdilution (CLSI); conditions: Bacteroides fragilis, 6688, strain 15; broth microdilution; read-out: MIC strain 15 (B. fragilis 6688)
C. perfringens DSM756 = assay: microbe, parasite or virus in culture; conditions: Clostridium perfringens, DSM756, read-out: MIC strain 16 (C. perfringens DSM756), strain 16; broth microdilution
E. coli J62 = assay: MIC determination, broth microdilution (CLSI); conditions: broth microdilution; for MIC: Escherichia coli, J62, strain 17, read-out: MIC strain 17 (E. coli J62)
E. coli J62-TEM-3 = assay: MIC determination, broth microdilution (CLSI); conditions: Escherichia coli, J62TEM3, read-out: MIC strain 18 (E. coli J62-TEM-3), strain 18; broth microdilution
Bacteria = assay: MIC determination in combination with β-lactamase inhibitors (constant 4 μg/mL)
[3] = Staphylococcus aureus, 133, strain 11, read-out: strain 11 MIC
[4] = Staphylococcus aureus, 133, strain 14, broth microdilution, read-out: MIC strain 14 (S. aureus 133)

Structure (SMILES)	MIC (E. coli ATCC25922) [µg/mL]	MIC (K. pneumoniae 60) [µg/mL]	MIC (E. cloacae 34654) [µg/mL]	MIC (C. freundii K21/3034) [µg/mL]	MIC (M. morganii 126/3048) [µg/mL]	MIC (P. aeruginosa PAO1) [µg/mL]	MIC [1] [µg/mL]	MIC [2] [µg/mL]	MIC (A. baumannii ATCC15308) [µg/mL]	MIC (S. maltophilia ICB7569) [µg/mL]	MIC (S. aureus 133; [3]) [µg/mL]	MIC (S. aureus 133; [4]) [µg/mL]	MIC (H. influenzae ATCC 49247) [µg/mL]	MIC (S. pneumoniae 113) [µg/mL]	MIC (B. fragilis 6688) [µg/mL]	MIC (C. perfringens DSM756) [µg/mL]	MIC (E. coli J62-TEM-3) [µg/mL]	MIC strain 19 (E. coli J62-TEM-3 + 4 μg/mL clavulanic acid) (Bacteria)	MIC strain 20 (E. coli J62-TEM-3 + 4 μg/mL sulbactam) (Bacteria)	MIC strain 21 (E. coli J62-TEM-3 + 4 μg/mL tazobactam) (Bacteria)	other results
CN(C)C(=O)[C@@H]1C[C@H](NC(=N)c2ccc(OCCO/N=C(\C(=O)N[C@@H]3C(=O)N(OS(=O)(=O)O)C3(C)C)c3csc(N)n3)cc2)CN1 [Example 42, (4S)-4-{[{4-[2-({[(1Z)-1-(2-Amino-1,3-thiazol-4-yl)-2-{[(3S)-2,2-dimethyl-4-oxo-1-(sulfooxy)azetidin-3-yl]amino}-2-oxoethylidene]amino}oxy)ethoxy]phenyl}(imino)methyl]amino}-N,N-dimethyl-L-prolinamide]	1 (≈ 1.47 µM)	1 (≈ 1.47 µM)	2 (≈ 2.93 µM)	1 (≈ 1.47 µM)	2 (≈ 2.93 µM)	16 (≈ 23.5 µM)	16 (≈ 23.5 µM)	16 (≈ 23.5 µM)	8 (≈ 11.7 µM)	16 (≈ 23.5 µM)	≤ 0.063	16 (≈ 23.5 µM)	0.25 (≈ 0.367 µM)	0.125 (≈ 0.183 µM)	8 (≈ 11.7 µM)	4 (≈ 5.87 µM)	16 (≈ 23.5 µM)	1 µg/mL	1 µg/mL	1 µg/mL	MIC (E. coli J62): 1 µg/mL (≈ 1.47 µM)
C[C@H]1[C@H](NC(=O)/C(=N\OCCOc2ccc(C(=N)N)cc2)c2nc(N)sc2Cl)C(=O)N1S(=O)(=O)O [Example 61, (2S,3S)-3-{[(2Z)-2-(2-Amino-5-chloro-1,3-thiazol-4-yl)-2-{[2-(4-carbamimidoylphenoxy)ethoxy]imino}acetyl]amino}-2-methyl-4-oxoazetidine-1-sulfonic acid]	2 (≈ 3.66 µM)	2 (≈ 3.66 µM)	2 (≈ 3.66 µM)	1 (≈ 1.83 µM)	0.5 (≈ 0.916 µM)	2 (≈ 3.66 µM)	2 (≈ 3.66 µM)	16 (≈ 29.3 µM)	2 (≈ 3.66 µM)	16 (≈ 29.3 µM)	≤ 0.063	8 (≈ 14.7 µM)	0.25 (≈ 0.458 µM)	≤ 0.063	8 (≈ 14.7 µM)	8 (≈ 14.7 µM)	8 (≈ 14.7 µM)	2 µg/mL	2 µg/mL	2 µg/mL	MIC (E. coli J62): 2 µg/mL (≈ 3.66 µM)
CC1(C)[C@H](NC(=O)/C(=N\O[C@@H](COc2ccc(C(=N)NC3CC3N)cc2)C(=O)O)c2csc(N)n2)C(=O)N1OS(=O)(=O)O (single isomer, unassigned) [Example 100A]	–	–	–	–	≤ 0.063	–	–	–	–	–	≤ 0.063	–	≤ 0.063	0.5 (≈ 0.78 µM)	8 (≈ 12.5 µM)	2 (≈ 3.12 µM)	32 (≈ 49.9 µM)	0.125 µg/mL	0.125 µg/mL	0.25 µg/mL	strain 1 MIC (E. coli ATCC25922; strain 1): 0.125 µg/mL; strain 2 MIC (K. pneumoniae 60; strain 2): 0.25 µg/mL; strain 3 MIC (E. cloacae 34654; strain 3): 0.125 µg/mL; strain 4 MIC (C. freundii K21/3034; strain 4): 0.125 µg/mL; strain 6 MIC (P. aeruginosa PAO1; strain 6): 2 µg/mL; strain 7 MIC [1]: 4 µg/mL; strain 8 MIC ([2]; strain 8): 4 µg/mL; strain 9 MIC (A. baumannii ATCC15308; strain 9): 8 µg/mL; strain 10 MIC (S. maltophilia ICB7569; strain 10): 8 µg/mL; MIC strain 17 (E. coli J62) (E. coli J62; strain 17): 0.25 µg/mL (≈ 0.39 µM)
CC1(C)[C@H](NC(=O)/C(=N\O[C@@H](COc2ccc(C(=N)N[C@@H]3CCNC3)cc2)C(=O)O)c2csc(N)n2)C(=O)N1OS(=O)(=O)O [Example 96]	0.125 (≈ 0.191 µM)	≤ 0.063	≤ 0.063	≤ 0.063	≤ 0.063	1 (≈ 1.53 µM)	1 (≈ 1.53 µM)	1 (≈ 1.53 µM)	1 (≈ 1.53 µM)	4 (≈ 6.11 µM)	≤ 0.063	32 (≈ 48.9 µM)	≤ 0.063	0.5 (≈ 0.764 µM)	8 (≈ 12.2 µM)	1 (≈ 1.53 µM)	4 (≈ 6.11 µM)	≦0.063 mg/L	≦0.063 mg/L	≦0.063 mg/L	MIC (E. coli J62): 0.125 µg/mL (≈ 0.191 µM)
CC1(C)[C@H](NC(=O)/C(=N\OCCOc2ccc(C(=N)NC(CN)CN)cc2)c2csc(N)n2)C(=O)N1OS(=O)(=O)O [Example 84, (2Z)-2-(2-Amino-1,3-thiazol-4-yl)-2-[(2-{4-[N-(1,3-diaminopropan-2-yl)carbamimidoyl]phenoxy}ethoxy)imino]-N-[(3S)-2,2-dimethyl-4-oxo-1-(sulfooxy)azetidin-3-yl]ethanamide]	≤ 0.063	0.125 (≈ 0.204 µM)	0.125 (≈ 0.204 µM)	≤ 0.063	0.25 (≈ 0.407 µM)	1 (≈ 1.63 µM)	2 (≈ 3.26 µM)	2 (≈ 3.26 µM)	1 (≈ 1.63 µM)	32 (≈ 52.1 µM)	≤ 0.063	2 (≈ 3.26 µM)	≤ 0.063	≤ 0.063	4 (≈ 6.52 µM)	2 (≈ 3.26 µM)	4 (≈ 6.52 µM)	≦0.063 mg/L	0.125 µg/mL	0.125 µg/mL	MIC (E. coli J62): 0.125 µg/mL (≈ 0.204 µM)
CC1(C)[C@H](NC(=O)/C(=N\OCCOc2ccc(C(=N)NCCCN)cc2)c2csc(N)n2)C(=O)N1OS(=O)(=O)O [Example 83, (2Z)-2-[(2-{4-[N-(3-Aminopropyl)carbamimidoyl]phenoxy}ethoxy)imino]-2-(2-amino-1,3-thiazol-4-yl)-N-[(3S)-2,2-dimethyl-4-oxo-1-(sulfooxy)azetidin-3-yl]ethanamide]	0.125 (≈ 0.209 µM)	0.25 (≈ 0.418 µM)	0.25 (≈ 0.418 µM)	0.125 (≈ 0.209 µM)	0.5 (≈ 0.835 µM)	2 (≈ 3.34 µM)	4 (≈ 6.68 µM)	4 (≈ 6.68 µM)	0.25 (≈ 0.418 µM)	16 (≈ 26.7 µM)	≤ 0.063	2 (≈ 3.34 µM)	≤ 0.063	≤ 0.063	4 (≈ 6.68 µM)	2 (≈ 3.34 µM)	4 (≈ 6.68 µM)	0.125 µg/mL	0.25 µg/mL	0.25 µg/mL	MIC (E. coli J62): 0.25 µg/mL (≈ 0.418 µM)
CC1(C)[C@H](NC(=O)/C(=N\O[C@@H](COc2ccc(C(=N)NC3CCCNC3)cc2)C(=O)O)c2csc(N)n2)C(=O)N1OS(=O)(=O)O (stereo partly drawn) [Example 97, (2S)-2-({[(1Z)-1-(2-Amino-1,3-thiazol-4-yl)-2-{[(3S)-2,2-dimethyl-4-oxo-1-(sulfooxy)azetidin-3-yl]amino}-2-oxoethylidene]amino}oxy)-3-{4-[N-(piperidin-3-yl)carbamimidoyl]phenoxy}propanoic acid]	≤ 0.063	0.125 (≈ 0.187 µM)	0.125 (≈ 0.187 µM)	≤ 0.063	≤ 0.063	1 (≈ 1.5 µM)	1 (≈ 1.5 µM)	1 (≈ 1.5 µM)	1 (≈ 1.5 µM)	4 (≈ 5.98 µM)	≤ 0.063	32 (≈ 47.9 µM)	≤ 0.063	0.5 (≈ 0.748 µM)	4 (≈ 5.98 µM)	0.5 (≈ 0.748 µM)	4 (≈ 5.98 µM)	≦0.063 mg/L	≦0.063 mg/L	≦0.063 mg/L	MIC (E. coli J62): 0.125 µg/mL (≈ 0.187 µM)
